Here are results for 1 compound from US20220050094A1, “Application of the apparent volume of distribution in extraction technologies and pharmacokinetics” (priority 2020, published 2022).

As a reminder, the Vd is the apparent volume that relates the amount in the body to the concentration in plasma or blood. A higher Vd goes with extensive tissue distribution.

A short description of the data set: clinical. As to conditions: human, in vivo. From the text: We claim that these volumes represent the physiological volumes of extracellular fluid compartments that receive the drug with different kinetic rates. Total exclusion of the drug from intracellular fluids is most plausible considering the highly polar and hydrophilic nature of sisomicin. Alternatively, the peripheral compartment could be considered to be interstitial fluid as a different phase of slightly higher drug affinity, where steric hindrance and binding to the negatively charged components of the extracellular matrix retards drug movement. […] The explicit solutions to the two-compartment model as a function of real time provide estimates of drug concentration upon repeated dosing (U.S. patent application Ser. No. 16/992,658). These drug concentrations at momentary distribution equilibrium (teq) can be used to determine the drug's apparent volume of distribution.
Eq. 21, can be used to assess a substance apparent volume of distribution associated with the phase of the central compartment, but only if the central compartment is a single phase. Using eq. 21, Vd,1 was calculated to be equal to 11.78 L. The equilibrium time of intercompartmental drug distribution teq is calculated from eq.
Eur J Clin Pharmacol. 1976; 10: 251-256. […]

For `CN[C@@H]1[C@@H](O)[C@@H](O[C@@H]2[C@@H](O)[C@H](O[C@H]3OC(CN)=CC[C@H]3N)[C@@H](N)C[C@H]2N)OC[C@]1(C)O` [sisomicin], the Vd was 11.8 L.
